The text below walks through data of patent US20250320213A1, “Nitrogen-Containing Heterocyclic Compounds” (Pfizer Inc., priority 2024, published 2025).

One assay deals with T1, STAT6 (Homo sapiens, UniProt P42226).
T1 construct: stably transfected HaCaT keratinocyte cell line, which expresses NanoLuc luciferase reporter gene under the transcriptional control of the STAT6 responsive promoter; endogenous in cells; host or cells: HaCaT keratinocyte reporter cell line (stably transfected with a NanoLuc reporter)
T1 sequence (P42226 1-847): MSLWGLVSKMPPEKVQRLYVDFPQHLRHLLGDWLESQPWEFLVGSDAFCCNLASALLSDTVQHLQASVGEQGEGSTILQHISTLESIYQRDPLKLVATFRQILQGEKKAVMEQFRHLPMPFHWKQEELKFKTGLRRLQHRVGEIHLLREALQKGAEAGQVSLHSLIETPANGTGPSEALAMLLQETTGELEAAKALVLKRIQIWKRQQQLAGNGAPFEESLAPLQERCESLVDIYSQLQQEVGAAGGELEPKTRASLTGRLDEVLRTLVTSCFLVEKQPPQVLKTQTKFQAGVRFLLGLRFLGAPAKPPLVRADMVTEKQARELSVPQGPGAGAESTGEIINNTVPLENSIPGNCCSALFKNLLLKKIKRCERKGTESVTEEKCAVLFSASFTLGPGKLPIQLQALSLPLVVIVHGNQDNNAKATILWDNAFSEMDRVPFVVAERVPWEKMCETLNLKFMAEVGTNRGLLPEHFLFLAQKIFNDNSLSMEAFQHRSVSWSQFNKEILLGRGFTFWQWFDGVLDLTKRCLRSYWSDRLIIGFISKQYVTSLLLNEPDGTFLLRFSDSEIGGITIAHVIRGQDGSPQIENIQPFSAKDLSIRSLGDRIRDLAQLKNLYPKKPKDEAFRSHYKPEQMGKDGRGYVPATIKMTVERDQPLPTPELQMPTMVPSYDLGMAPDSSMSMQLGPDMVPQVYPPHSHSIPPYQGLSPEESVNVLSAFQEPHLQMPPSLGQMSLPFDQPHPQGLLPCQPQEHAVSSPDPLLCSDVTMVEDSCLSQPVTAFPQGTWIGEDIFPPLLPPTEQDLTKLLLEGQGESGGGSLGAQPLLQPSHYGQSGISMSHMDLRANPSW
Put plainly: STAT6 Reporter Luciferase Assay (IL-13 stimulated HaCaT keratinocyte NanoLuc reporter cells). Format: cell-based. The settings on record: STAT6 NanoLuc luciferase reporter, IL-13 stimulated HaCaT keratinocyte cells; read-out: Reporter EC50. The gist of the method: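 Cells were plated overnight, washed, exposed to compound for two hours, stimulated with IL-13 (0.12 nM final) for four hours at 37 °C, and then lysed with Nano-Glo substrate for 15 min before luminescence reading.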

The test system of assay [1] is CCL17 secretion in peripheral human whole blood. The assay is described as follows: Human Whole Blood (HWB) CCL17 TR-FRET Assay (IL-13 stimulated CCL17 secretion). Format: cell-based. The settings on record: Homo sapiens, 48 h, inhibition of CCL17 secretion in human whole blood, 10 ng/mL IL13, 48 hours. In short, it runs like this: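 IC50 values reflect inhibition of IL-13-driven CCL17 release in human whole blood. Blood was preincubated with compound 2 h, stimulated 48 h at 37 °C with IL-13 (10 ng/mL final), and serum CCL17 was measured by TR-FRET.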
(In general: In TR-FRET formats the signal depends on donor and acceptor labels being close together.)

For `CC(C)n1nc(C(=O)NCc2ccc(NC(=O)N3CCC(OCCO)CC3)cc2)c2c1CCN(c1ccc(C(=O)N(C)C)cn1)C2` [Example 162, 5-(5-(dimethylcarbamoyl)pyridin-2-yl)-N-(4-(4-(2-hydroxyethoxy)piperidine-1-carboxamido)benzyl)-1-isopropyl-4,5,6,7-tetrahydro-1H-pyrazolo[4,3-c]pyridine-3-carboxamide], the EC50 on STAT6 worked out at 0.011 µM. Also, the midpoint of inhibition in assay [1], the IC50, lay at 0.066 µM.
Taken in the same sequence, the figures for `CC(C)n1nc(C(=O)NCc2ccc(NC(=O)N3CC(C)(N)C3)cc2)c2c1CCN(c1ccc(C(=O)N(C)C)cn1)C2` [Example 163, N-(4-(3-amino-3-methylazetidine-1-carboxamido)benzyl)-5-(5-(dimethylcarbamoyl)pyridin-2-yl)-1-isopropyl-4,5,6,7-tetrahydro-1H-pyrazolo[4,3-c]pyridine-3-carboxamide] were 0.016 µM and 0.03 µM.
Consider `COC1(C)CN(C(=O)Nc2ccc(CNC(=O)c3nn(C(C)C)c4c3CN(c3ccc(C(=O)N(C)C)cn3)CC4)cc2)C1` [Example 165, 5-(5-(dimethylcarbamoyl)pyridin-2-yl)-1-isopropyl-N-(4-(3-methoxy-3-methylazetidine-1-carboxamido)benzyl)-4,5,6,7-tetrahydro-1H-pyrazolo[4,3-c]pyridine-3-carboxamide], for which the EC50 at STAT6 came to 0.014 µM. In addition, in assay [1], the IC50 is 0.156 µM.
Taken in the same sequence, the figures for `CO[C@H]1CN(C(=O)Nc2ccc(CNC(=O)c3nn(C(C)C)c4c3CN(c3ccc(C(=O)N(C)C)cn3)CC4)cc2)C[C@@H]1O` [Example 166, 5-(5-(dimethylcarbamoyl)pyridin-2-yl)-N-(4-((3S,4S)-3-hydroxy-4-methoxypyrrolidine-1-carboxamido)benzyl)-1-isopropyl-4,5,6,7-tetrahydro-1H-pyrazolo[4,3-c]pyridine-3-carboxamide] were 0.004 µM and 0.021 µM.
On to `CC(C)n1nc(C(=O)NCc2ccc(NC(=O)N3CCO[C@@H](CO)C3)cc2)c2c1CCN(c1ccc(C(=O)N(C)C)cn1)C2` [Example 167, (R)-N-(4-((5-(5-(dimethylcarbamoyl)pyridin-2-yl)-1-isopropyl-4,5,6,7-tetrahydro-1H-pyrazolo[4,3-c]pyridine-3-carboxamido)methyl)phenyl)-2-(hydroxymethyl)morpholine-4-carboxamide], for which, at STAT6, the EC50 stood at 0.029 µM. For the same compound, the 50% inhibitory concentration (IC50) in assay [1] is 0.154 µM.
For `CC(C)n1nc(C(=O)NCc2ccc(NC(=O)N(C)CC3COC3)cc2)c2c1CCN(c1ccc(C(=O)N(C)C)cn1)C2` [Example 168, 5-(5-(dimethylcarbamoyl)pyridin-2-yl)-1-isopropyl-N-(4-(3-methyl-3-(oxetan-3-ylmethyl)ureido)benzyl)-4,5,6,7-tetrahydro-1H-pyrazolo[4,3-c]pyridine-3-carboxamide], the EC50 at STAT6 was 0.024 µM. Besides, the IC50 in assay [1] turned out to be 0.111 µM.
Taken in the same sequence, the figures for `CC(C)n1nc(C(=O)NCc2ccc(NC(=O)N[C@H]3C[C@@H](O)C3)cc2)c2c1CCN(c1ccc(C(=O)N(C)C)cn1)C2` [Example 169] were 0.032 µM and 0.125 µM.
The matching figures for `CC(C)n1nc(C(=O)NCc2ccc(NC(=O)N3CC[C@H](N(C)C)C3)cc2)c2c1CCN(c1ccc(C(=O)N(C)C)cn1)C2` [Example 170, (S)-N-(4-(3-(dimethylamino)pyrrolidine-1-carboxamido)benzyl)-5-(5-(dimethylcarbamoyl)pyridin-2-yl)-1-isopropyl-4,5,6,7-tetrahydro-1H-pyrazolo[4,3-c]pyridine-3-carboxamide]: 0.017 µM and 0.082 µM.
In the case of `CC(C)n1nc(C(=O)NCc2ccc(NC(=O)N3CCC(C)(C#N)CC3)cc2)c2c1CCN(c1ccc(C(=O)N(C)C)cn1)C2` [Example 172, N-(4-(4-cyano-4-methylpiperidine-1-carboxamido)benzyl)-5-(5-(dimethylcarbamoyl)pyridin-2-yl)-1-isopropyl-4,5,6,7-tetrahydro-1H-pyrazolo[4,3-c]pyridine-3-carboxamide], the concentration giving a half-maximal response (EC50) at STAT6 came out at 0.011 µM. For the same compound, in assay [1], half-maximal inhibition (IC50) was put at 0.15 µM.
Consider `CC(C)n1nc(C(=O)NCc2ccc(NC(=O)N3CCOCC3)cc2)c2c1CCN(c1ccc(C(=O)N(C)C)cn1)C2` [Example 173, N-(4-((5-(5-(dimethylcarbamoyl)pyridin-2-yl)-1-isopropyl-4,5,6,7-tetrahydro-1H-pyrazolo[4,3-c]pyridine-3-carboxamido)methyl)phenyl)morpholine-4-carboxamide], for which the EC50 at STAT6 was 0.011 µM. The IC50 in assay [1] worked out at 0.072 µM.
In the case of `CC(C)n1nc(C(=O)NCc2ccc(NC(=O)N3CCC(CO)CC3)cc2)c2c1CCN(c1ccc(C(=O)N(C)C)cn1)C2` [Example 175, 5-(5-(dimethylcarbamoyl)pyridin-2-yl)-N-(4-(4-(hydroxymethyl)piperidine-1-carboxamido)benzyl)-1-isopropyl-4,5,6,7-tetrahydro-1H-pyrazolo[4,3-c]pyridine-3-carboxamide], the EC50 at STAT6 is 0.007 µM. This compound also yielded an IC50 in assay [1] of 0.067 µM.
Taken in the same sequence, the figures for `CC(C)n1nc(C(=O)NCc2ccc(NC(=O)N3CCN(C)CC3)cc2)c2c1CCN(c1ccc(C(=O)N(C)C)cn1)C2` [Example 177, 5-(5-(dimethylcarbamoyl)pyridin-2-yl)-1-isopropyl-N-(4-(4-methylpiperazine-1-carboxamido)benzyl)-4,5,6,7-tetrahydro-1H-pyrazolo[4,3-c]pyridine-3-carboxamide] were 0.008 µM and 0.051 µM.
With `COCCNC(=O)Nc1ccc(CNC(=O)c2nn(C(C)C)c3c2CN(c2ccc(C(=O)N(C)C)cn2)CC3)cc1` [Example 178, 5-(5-(dimethylcarbamoyl)pyridin-2-yl)-1-isopropyl-N-(4-(3-(2-methoxyethyl)ureido)benzyl)-4,5,6,7-tetrahydro-1H-pyrazolo[4,3-c]pyridine-3-carboxamide], at STAT6, the EC50 stood at 0.007 µM. This compound yielded an IC50 in assay [1] of 0.045 µM.
Taken in the same sequence, the figures for `CO[C@@H]1CCN(C(=O)Nc2ccc(CNC(=O)c3nn(C(C)C)c4c3CN(c3ccc(C(=O)N(C)C)cn3)CC4)cc2)C1` [Example 179, (R)-5-(5-(dimethylcarbamoyl)pyridin-2-yl)-1-isopropyl-N-(4-(3-methoxypyrrolidine-1-carboxamido)benzyl)-4,5,6,7-tetrahydro-1H-pyrazolo[4,3-c]pyridine-3-carboxamide] were 0.007 µM and 0.064 µM.
Taken in the same sequence, the figures for `CC(C)n1nc(C(=O)NCc2ccc(NC(=O)N(C)CCO)cc2)c2c1CCN(c1ccc(C(=O)N(C)C)cn1)C2` [Example 180, 5-(5-(dimethylcarbamoyl)pyridin-2-yl)-N-(4-(3-(2-hydroxyethyl)-3-methylureido)benzyl)-1-isopropyl-4,5,6,7-tetrahydro-1H-pyrazolo[4,3-c]pyridine-3-carboxamide] were 0.018 µM and 0.055 µM.
Regarding `CC(C)n1nc(C(=O)NCc2ccc(NC(=O)NCC3COC3)cc2)c2c1CCN(c1ccc(C(=O)N(C)C)cn1)C2` [Example 181, 5-(5-(dimethylcarbamoyl)pyridin-2-yl)-1-isopropyl-N-(4-(3-(oxetan-3-ylmethyl)ureido)benzyl)-4,5,6,7-tetrahydro-1H-pyrazolo[4,3-c]pyridine-3-carboxamide], the 50% effective concentration (EC50) on STAT6 amounted to 0.26 µM. In addition, in assay [1], the IC50 came to 0.436 µM.

The term EC50 denotes the concentration at which the effect is half-maximal. As a reminder, the IC50 is the concentration needed to halve the response being measured.
